Here are results for 1 molecule from article PMC7782499, “Progerinin, an optimized progerin-lamin A binding inhibitor, ameliorates premature senescence phenotypes of Hutchinson-Gilford progeria syndrome” (Communications Biology, 2021).

In one data set the target is T1, CYP1A2 (Homo sapiens, UniProt P05177).
T1 sequence (P05177 1-516): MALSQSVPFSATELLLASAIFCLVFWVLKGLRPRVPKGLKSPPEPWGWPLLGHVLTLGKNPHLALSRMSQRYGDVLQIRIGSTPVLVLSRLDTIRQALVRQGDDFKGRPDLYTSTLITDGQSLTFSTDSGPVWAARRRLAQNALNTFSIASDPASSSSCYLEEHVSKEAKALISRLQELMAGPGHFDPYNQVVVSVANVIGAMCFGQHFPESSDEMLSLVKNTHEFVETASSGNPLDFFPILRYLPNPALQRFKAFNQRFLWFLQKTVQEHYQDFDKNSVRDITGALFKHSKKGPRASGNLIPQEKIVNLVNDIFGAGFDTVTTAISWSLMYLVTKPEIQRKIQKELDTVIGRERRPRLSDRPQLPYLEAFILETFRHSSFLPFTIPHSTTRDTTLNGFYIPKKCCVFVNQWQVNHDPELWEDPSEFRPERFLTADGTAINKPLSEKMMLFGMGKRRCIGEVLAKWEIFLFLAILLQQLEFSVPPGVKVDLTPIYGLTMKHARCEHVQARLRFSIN
Description: CYP inhibition, CYP1A2. The format is in vitro ADME. As for the experimental part: At pre-set time-points, blood concentration of JH4 was determined by LC-MS/MS analysis[22],[23]. Other chemicals were also tested using similar protocol. In vitro ADME studies (plasma protein binding, CYP inhibition, microsomal stability, plasma stability, and hERG inhibition) were performed by New Drug Development Center (Daegu, Korea) using standard protocols[24],[25].

The target in a further data set is CYP2C19 (Homo sapiens, UniProt P33261). The experiment in a line: CYP inhibition, CYP2C19. The format is in vitro ADME. As for the experimental part:
For PK analysis, 5 mg/kg of JH4 in 10% DMSO, 5% […] solution were intravenously injected and 10 mg/kg of JH4 in 10% NMP and 90% PEG400 solution were orally delivered. At pre-set time-points, blood concentration of JH4 was determined by LC-MS/MS analysis[22],[23]. Other chemicals were also tested using similar protocol. In vitro ADME studies (plasma protein binding, CYP inhibition, microsomal stability, plasma stability, and hERG inhibition) were performed by New Drug Development Center (Daegu, Korea) using standard protocols[24],[25].

The next data set deals with Lmna G609G/G609G mouse. Description: Life span of Lmna G609G/G609G progeria model mice. The format is in vivo. Particulars: i.p. 20 mg/kg twice a week from 5 weeks old. The text has this:
Fig. 3 In vivo favorable effect of SLC-D011. A Gross morphology of Lmna^G609G/G609G mice (10 weeks old) was ameliorated after injection with SLC-D011. At the same age, the experimental group (D011) of mice were larger than vehicle-injected control (Con) subjects regardless of gender. B, C SLC-D011 increases body weight B and extends life span C of Lmna^G609G/G609G progeria model mouse (Con: n = 8; SLC-D011: n = 8). Compared with 14.8 weeks of average (ave) life span with maximum (max) life span of 15.5 weeks, 20 mg/kg of intraperitoneal (i.p) injection (twice a week) of SLC-D011 could extend the life span upto 19 weeks (max = 21 weeks). Lmna^G609G/G609G mice were injected with SLC-D011 from age of 5-week old, *p < 0.05. D Gross morphology of SLC-D011 injected Lmna^G609G/+ mouse. […] E SLC-D011 increases body weights of Lmna^G609G/+ mice (Con: n = 10; SLC-D011: n = 11), *p < 0.05. F Favorable effect of SLC-D011 on life span of Lmna^G609G/+ mice. […] Only the axis reads Age (weeks).
Fig. 4 Oral administration of SLC-D011 suppresses premature aging features. […] H Anti-aging effects of single treatment of SLC-D011 or lonafarnib were measured in HGPS patients-derived cells (AG11513, AG03199, AG11498, and AG03198, Coriell Cell Repositories). […]

CYP2C19, sequence (P33261 whole entry): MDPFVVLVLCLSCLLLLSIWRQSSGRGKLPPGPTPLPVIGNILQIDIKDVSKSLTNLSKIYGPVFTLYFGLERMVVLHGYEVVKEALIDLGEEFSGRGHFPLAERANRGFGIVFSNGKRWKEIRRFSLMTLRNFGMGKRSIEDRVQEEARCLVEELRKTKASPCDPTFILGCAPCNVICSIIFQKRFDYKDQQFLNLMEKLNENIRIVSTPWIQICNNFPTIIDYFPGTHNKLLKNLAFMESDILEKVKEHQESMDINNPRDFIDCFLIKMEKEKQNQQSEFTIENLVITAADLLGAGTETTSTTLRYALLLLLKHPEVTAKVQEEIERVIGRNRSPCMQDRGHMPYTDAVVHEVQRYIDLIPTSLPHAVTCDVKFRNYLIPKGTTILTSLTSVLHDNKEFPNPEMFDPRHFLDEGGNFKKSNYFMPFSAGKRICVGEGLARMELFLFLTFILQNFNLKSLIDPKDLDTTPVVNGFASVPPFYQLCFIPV

With `CC1(C)Oc2cc3oc(=O)ccc3cc2C[C@@H]1OC/C=C/c1ccccc1` [SLC-D011], the results for the CYP inhibition at CYP1A2 and at CYP2C19 were 81.6 and 28.8, respectively. Further, the Maximum life span in the data set on Lmna G609G/G609G mouse came out at 21 weeks.
